Results as given in PubChem BioAssay AID179 (DTP/NCI, 2004).
pEC50, pIC50: −log10 of the molar value. Where “and” joins values, the source holds several entries; their conditions need not be identical. Equal entries are not always repeated. Calls of active or inactive are those of the source.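 How the source made its calls: active means compounds giving half or more protection of infected cells from virus-caused growth loss, again on retest; inactive means the rest.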 Where a SMILES comes first, the peptide text is derived from it. The star is where a group is joined. Cbz = O=C(OCc1ccccc1)*; OBn = c1ccc(CO*)cc1

System: CEM cells HIV-1 protection, formazan growth assay
Assay: NCI AIDS Antiviral Assay
Details: for pIC50: measured here: growth of uninfected CEM cells
Procedure: The ability of compounds to protect human CEM cells from HIV-1 infection is measured as a screen for new compounds capable of inhibiting the HIV virus. Five concentrations of drug were tested on uninfected and infected cells and cell growth was measured using a soluble formazan assay. […] Compounds that provided at least 50% protection were retested. Compounds that provided at least 50% protection on retest were listed as moderately active. Compounds that reproducibly provided 100% protection were listed as confirmed active. […] Note that the inability to provide protection could be due to toxicity.

Row | Compound | pEC50 | pIC50 | outcome
1 | CN=c1sc2c(n1C)C(=O)c1ccccc1C2=O | < 3.70 | 5.03 | –
2 | COC(=O)C(Cc1ccccc1)NP(=O)(O)OCC1OC(n2ccc(N)nc2=O)C(O)C1O (stereo not given) | < 3.70 | 5.37 | –
3 | Cc1ccccc1N(CCC#N)C1=NN(C(=O)CC(=O)Nc2ccc(Cl)cc2)C(c2ccccc2)C1 (stereo not given) | < 3.30 | < 3.30 | –
4 | O=C1OC(=O)c2cnccc21 | – | – | inactive
5 | CCCCCCCCCCCCCCCC(=O)NC(Cc1ccc(O)cc1)C(=O)O (stereo not given) | < 4.00 | 4.30 | –
6 | COC(=O)C(N)CSSCC(N)C(=O)OC (stereo not given) | < 3.49 | 3.91 | –
7 | c1ccn2nncc2c1 | < 3.70 | < 3.70 | –
8 | COc1c2c3c(c(OC)c1OC)-c1ccc(O)cc1C3=NCC2 | – | – | inactive
9 | O=C1CN(Cc2ccc(Cl)cc2)CC(=O)N2Cc3ccccc3CN12 | < 3.72 | 3.83 | –
10 | CC(=O)C(C)C(=O)N1C(=O)N(C)C2(C)N(C)C(=O)NC12C (stereo not given) | < 3.70 | < 3.70 | –
11 | CCO[C@H]1O[C@@H]2OC3(C)CCC4[C@H](C)CCC([C@H]1C)[C@]42OO3 (stereo not given in full) | < 3.70 | 4.45 | –
12 | CNc1nnc(CCCCCCCCc2nnc(NC)o2)o1 | < 3.70 | 4.94 | –
13 | Cc1cn(C(CCO)CCO)c(=O)[nH]c1=O | < 3.70 | < 3.70 | –
14 | N#COc1ccc(Oc2ccc(OC#N)cc2)cc1 | < 3.85 | 4.34 | –
15 | CCC(=O)OC1=C(c2ccccc2)Sc2ccc(Cl)cc2-n2cccc21 | < 3.70 | 4.92 | –
16 | Nc1ncnc2c1ncn2C1CCC(CP(=O)(O)O)C1 (stereo not given) | < 3.70 | < 3.70 | –
17 | CC1=C(C)C(=O)C2=C(OCCCO2)C1=O | < 2.92 | 5.47 | –
18 | C=C1CC2(OC1=O)c1ccccc1CCc1ccccc12 | < 4.44 | 5.21 | –
19 | C=C1C(=O)OC2CC(C)C3(O)C=C(C(C)=O)C4(OC3CC12)C(=O)OC1CC(C)C(/C=C\C(C)=O)=CCC14 (stereo not given) | < 4.43 | 4.72 | –
20 | C(=C\C(SCc1ccccc1)SCc1ccccc1)/c1ccccc1 | < 3.70 | < 3.70 | –
21 | O=C1C2c3[nH]c4ccccc4c3C3CCCCCCC3C2C(=O)N1c1ccccc1 (stereo not given) | – | – | inactive
22 | CC(=O)SSC12CC3CC(CC(C3)C1)C2 | < 3.70 | < 3.70 | –
23 | C/C(=N\NC(=S)NCCCNC(=S)N/N=C(\C)c1ccccn1)c1ccccn1 | < 3.70 | 5.50 | –

Row | Compound | pEC50 | pIC50 | outcome
24 | O=C(N/N=C\c1ccccn1)c1ccncc1 | < 3.70 | 4.04 | –
25 | N/N=C(/CC(O)(C(F)(F)F)C(F)(F)F)c1ccccc1 | < 3.70 | 3.95 | –
26 | NS(=O)(=O)c1ccc(SSc2ccc(S(N)(=O)=O)cc2[N+](=O)[O-])c([N+](=O)[O-])c1 | 4.51 | 3.71 | –
27 | c1ccc2cc3c(NC4=NCCO4)cccc3cc2c1 | < 3.70 | 4.19 | –
28 | CC(=O)OCc1c(O)c2c([nH]c1=O)CCc1ccccc1-2 | < 4.60 | < 4.60 | –
29 | CN(C)CCn1c2ccccc2c2nc3cc4ccccc4cc3nc21 | < 4.30 | 6.44 | –
30 | Cc1nc2ccccc2c(=O)n1/N=C(\N=Nc1cc(Cl)ccc1Cl)c1ccc(N(C)C)cc1 | – | – | inactive
31 | O=C(CSC(=S)N1CCOCC1)Nc1nc2c(s1)CCCC2 | < 4.14 | 4.21 | –
32 | Cc1cc[n+]2n1CC(O)C2 (stereo not given) | – | – | inactive
33 | [N-]=[N+]=NC1=NNC2(C(=O)N1)c1ccccc1-c1ccccc12 | < 4.00 | < 4.00 | –
34 | CCOC(=O)C(C)(CCC(C)(C(=O)OCC)C(=O)OCC)C(=O)OCC | < 3.70 | 4.12 | –
35 | Cc1cc(Cl)ccc1N=C1NC(=O)C(CC(=O)Nc2cccc(Cl)c2)S1 (stereo not given) | – | – | inactive
36 | Cc1cc(C2=CSC3=NCCN23)ccc1Cl | < 3.70 | 3.82 | –
37 | CCOc1ccc(C(CN2CCOCC2)C(C)=O)cc1OC (stereo not given) | < 3.14 | 5.71 | –
38 | COC(=O)C1(C)CC(c2ccccc2)=NC1c1ccccc1 (stereo not given) | < 3.91 | < 3.91 | –
39 | CC(C)C1=CC23CCC4C(C)(C(=O)O)CCCC4(C)C2CC1C1C(=O)N(c2cccc(N4C(=O)C5C6CC7C8(C)CCCC(C)(C(=O)O)C8CCC7(C=C6C(C)C)C5C4=O)c2)C(=O)C13 (stereo not given) | < 3.57 | 4.88 | –
40 | O=C(NCc1ccccc1O)c1ccc(O)cc1O | < 3.70 | 3.96 | –
41 | O=C(CBr)OCCCS(=O)(=O)O | < 3.70 | < 3.70 | –
42 | N#CN=CN1CCN(c2ccccn2)CC1 | < 3.27 | < 3.27 | –
43 | CC1(C)CC(=O)c2c(N)n[nH]c2C1 | 4.95 | < 3.70 | –
44 | COc1ccc(C(=O)C(C(=O)CCC(=O)Nc2ccc(C)c(C)c2)c2ccc(OC)cc2)cc1 (stereo not given) | < 4.66 | < 4.66 | –
45 | O=C(N/C(=C\c1ccccc1O)c1nc2ccccc2[nH]1)c1ccccc1 | < 4.29 | < 4.29 | –
46 | CC(=O)N1CCN(C=S)CC1 | < 2.84 | < 2.84 | –

Row | Compound | pEC50 | pIC50 | outcome
47 | CC1=C(C(=O)Nc2cc(=O)n(C)c(=O)n2C)C(c2cccc([N+](=O)[O-])c2)C(C(=O)Nc2cc(=O)n(C)c(=O)n2C)=C(C)N1 | < 4.50 | < 4.50 | –
48 | COC(=O)CNC(=O)C(C)NC(=O)C(CC(=O)OCc1ccccc1)NC(=O)OCc1ccccc1 (stereo not drawn) (Cbz-Asp(OBn)-Ala-Gly-OMe; configuration not given here) | < 3.70 | 3.97 | –
49 | NC(=O)C12C(=O)NC(=O)C1(C(=O)O)C21CCCC1 (stereo not given) | < 3.70 | < 3.70 | –
50 | O=c1ccc2ccc(O)c3c4c(=O)ccc5ccc(O)c(c1c23)c54 | – | – | inactive
51 | O=C(NCCCCCCNC(=O)NS(=O)(=O)c1ccccc1)NS(=O)(=O)c1ccccc1 | < 3.70 | < 3.70 | –
52 | Cc1nc(C(N)=S)sc1C(=O)CC(=O)C(=O)Nc1ccc(Br)cc1 | < 4.07 | < 4.07 | –
53 | c1ccc(SCCC(Sc2ccccc2)Sc2ccccc2)cc1 | < 3.70 | 4.03 | –
54 | CC(C)=C/C=C1/CS(=O)(=O)C=C1C | < 3.70 | 3.87 | –
55 | O=C(OC1CCC2OOC1O2)c1ccc([N+](=O)[O-])cc1 (stereo not given) | – | – | inactive
56 | CCCN=C(N)NC#N | < 3.15 | < 3.15 | –
57 | CC(C)(C)C1COP(=S)(C(C)(C)C)OC1 (stereo not given) | < 4.84 | < 4.84 | –
58 | CSc1c(S(C)=O)[nH]c2cc(Br)cc(Br)c12 (stereo not given) | – | – | inactive
59 | O=C(O)c1cc(/C=C/c2ccc(N=Nc3c(O)cc(O)cc3C(=O)O)c(C(=O)O)c2)ccc1N=Nc1c(O)cc(O)cc1C(=O)O | 4.78 and 5.41 | < 4.00 and 4.02 | –
60 | COc1ccc(-c2c3c(nc4[nH]c(=S)[nH]c(=S)c24)CCCC3)cc1OC | < 3.70 | 4.31 | –
61 | CC1=C(CC2C(=O)N(c3ccccc3)S(=O)(=O)NC2C)C(=O)N(c2ccccc2)S(=O)(=O)N1C (stereo not given) | < 3.31 | 4.78 | –
62 | CC(O)(c1ccccc1)c1ccc2ccccc2n1 (stereo not given) | < 3.70 | 4.42 | –
63 | CC(=O)N(C(C)=O)c1cc2c3c(c1)CCCN3CCC2 | < 3.70 | 3.74 | –
64 | Cc1nn(C(=O)c2ccccc2O)c2c1C(c1ccccc1)SC(N)=N2 (stereo not given) | < 5.70 | 6.38 | –
65 | CCCC(Cc1ccccc1)N1CCCC1 (stereo not given) | < 3.70 | < 3.70 | –
66 | CN(C)C1CS(=O)(=O)OC2=C1CCc1sccc12 (stereo not given) | < 4.60 | < 4.60 | –
67 | CC(=O)c1ccc2c(c1)CC1(C2)Cc2cc3c(cc2C1)C(=O)CC3 (stereo not given) | < 3.70 | 6.63 | –
